# Source: patent US8299066B2, “Compounds having NPY Y5 receptor antagonistic activity” (Shionogi & Co., Ltd., priority 2008, dated 2012)
# Columns and labels:
# [1] = Pharmacokinetic analysis in rats (cassette dosing, intravenous); format: in vivo; conditions: male, Crl, CD (SD), rat, plasma, intravenous administration (0.5 mg/mL/kg); for clearance: read-out: Rat CLtot; for half-life: read-out: Rat t½ (converted)
# Protocol: By using the cassette dosing method, half-life (t1/2) and total clearance (CLtot) of the compounds of this invention were estimated from change in plasma concentration of each compound in rats (Crl; CD (SD), ♂, 8 weeks) after intravenous administration (0.5 mg/mL/kg).
# [2] = Evaluation for brain penetration in rats (cassette dosing); format: in vivo; conditions: male, Crl; CD (SD), rat; brain/plasma partition coefficient, 30 minutes after intravenous administration (0.5 mg/mL/kg) in rats
# Protocol: (§1) By using the cassette dosing method (Drug. Metab. Dispos. (2001); 29, 957-966), brain penetration rate of the compounds (brain/plasma partition coefficients; Kp) were evaluated from plasma and brain concentrations at 30 minutes after intravenous administration (0.5 mg/mL/kg) in rats (Crl; CD (SD), ♂, 8 weeks) or at 3 or 5 hours after oral administration (2 mg/10 mL/kg) in mice (Jcl; C57BL/6J, ♂, 8 weeks).
# [3] = Evaluation for brain penetration in mice (cassette dosing); format: in vivo; conditions: male, Jcl; C57BL/6J, mouse; brain/plasma partition coefficient, 3 or 5 hours after oral administration (2 mg/10 mL/kg) in mice
# Protocol: as §1
# mouse NPY Y5 receptor = molecular target: T1, mouse NPY Y5 receptor (Mus musculus, UniProt O70342); assay: Affinity for mouse NPY Y5 receptor ([125I] peptide YY binding, CHO cell membranes); conditions: inhibition of specific [125I] peptide YY binding, membranes of CHO cells expressing mouse NPY Y5 receptor
# T1 construct: expressed in transfected cells
# T1 sequence (O70342 1-466): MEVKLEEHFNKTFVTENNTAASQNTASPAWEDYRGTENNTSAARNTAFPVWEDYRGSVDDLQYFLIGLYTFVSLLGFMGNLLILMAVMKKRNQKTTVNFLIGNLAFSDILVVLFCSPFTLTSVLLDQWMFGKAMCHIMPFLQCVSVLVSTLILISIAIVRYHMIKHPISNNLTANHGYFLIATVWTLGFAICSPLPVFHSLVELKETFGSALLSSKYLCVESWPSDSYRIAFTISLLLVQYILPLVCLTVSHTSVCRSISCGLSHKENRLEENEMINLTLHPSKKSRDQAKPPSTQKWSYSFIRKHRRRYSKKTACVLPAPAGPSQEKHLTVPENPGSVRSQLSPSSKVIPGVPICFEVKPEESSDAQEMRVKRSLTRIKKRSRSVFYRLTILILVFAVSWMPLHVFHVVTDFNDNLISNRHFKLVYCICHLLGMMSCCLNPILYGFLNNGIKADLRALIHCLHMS
# Source text: cDNA sequence encoding a mouse NPY Y5 receptor (Biochim. Biophys. Acta 1328:83-89, 1997) was cloned in a vector (pME18S, Takebe et al. Mol. Cell. Biol. 8, 8957). The obtained expression vector was transfected into CHO cells as a host by using Lipofect AMINE Reagent (Trademark, Gico BRL Co., Ltd.) according to the instruction manual. The cells that stably express NPY Y5 receptor were obtained.
# The membranes prepared from the CHO cells expressing NPY Y5 receptor, the compound of this invention and 30,000 cpm [^125I] peptide YY (60 pM of final concentration: Amersham) were incubated in the assay buffer (20 mM HEPES-Hanks buffer containing 0.1% bovine serum albumin, pH 7.4) at 25° C. for 2 hours, and then the membrane was filtered from the mixture through a glass filter (GF/C) presoaked with 1% polyethyleneimine. After washing with 50 mM Tris-HCl buffer (pH 7.4), radioactivity retained on the filters was quantified with a gamma counter. Nonspecific binding was defined as the amount of radioactivity bound to the membranes after incubation in the presence of 200 nM of peptide YY. The 50% inhibitory concentration of the test compound against the specific peptide YY binding (IC50 value) was calculated (Inui, A. et al. Endocrinology 131, 2090-2096 (1992)).
# NPY Y5 receptor = molecular target: T2, NPY Y5 receptor (Mus musculus, UniProt O70342); assay: Food intake in mice induced by ICV NPY Y5 receptor specific agonist; format: in vivo
# T2 construct: from tissue
# T2 sequence (O70342 1-466): T1 sequence (O70342 1-466)
# Protocol: Under diethylether anesthesia the skull of male C57BL/6J mice (12-14 week old, 25-30 g) was exposed by making an incision about 1-cm long from external occipital crest to nasal dorsum, and drilled in the 1-mm lateral position to the left following 1-mm posterior from bregma. After recovery from anesthesia mice were dosed with either 0.5% hydroxypropylmethyl cellulose solution (Shin-Etsu Chemical Co., Ltd) or the compounds of this invention suspended in the 0.5% hydroxypropylmethyl cellulose solution. At one hour after the treatment, each animal received a NPY Y5 receptor specific agonist, [cPP^1-7, NPY^19-23, Ala^31, Aib^32, Gln^34]-hPancreatic Polypeptide (0.1 nmol/1.5 μL/mouse) through the skull opening using a canula. Residual food was measured at 2 and 4 hours after the treatment, and the difference in food intake between the compounds-treated mice and 0.5% hydroxypropylmethyl cellulose solution-treated mice was calculated. The compound at 6 mg/kg caused a significant reduction in food intake of mice compared to the treatment with 0.5% hydroxypropylmethyl cellulose solution.
# For example, mean food intakes at 2 and 4 hours after oral administration of Compound IVa-9 at 6 mg/kg in mice (Group A) were 0.24±0.05 g and 0.51±0.06 g, respectively. On the other hand, mean food intakes at 2 and 4 hours after oral administration of 0.5% hydroxypropylmethyl cellulose solution in mice (Group B) were 0.58±0.07 g and 1.26±0.10 g, respectively. Also, mean food intakes at 2 and 4 hours after oral administration of 0.5% hydroxypropylmethyl cellulose solution without ICV injection of NPY Y5 receptor specific agonist in mice (Group C) were 0.06±0.04 g and 0.14±0.05 g, respectively. After subtracting the mean value of Group C from that of Group A or B, the inhibition rates of the compound on food intake at 2 and 4 hours after administration in Group A against Group B were estimated.
SMILES,clearance [1],half-life [1],Kp at 0.5 h [2],Kp at 5 h [3],IC50 (mouse NPY Y5 receptor),also measured
CC(C)(C)S(=O)(=O)N[C@H]1CC[C@H](c2nc(-c3ccc(Cl)c(Cl)c3)c[nH]2)CC1 [IIIa-4],14.8 mL/min/kg,2.96 h,1.37,0.45,,
CC(C)(C)S(=O)(=O)N[C@H]1CC[C@H](c2nc(-c3cccc(Cl)c3)n[nH]2)CC1 [Va-5],3.82 mL/min/kg,9.1 h,,,,
CC(C)(C)S(=O)(=O)N[C@H]1CC[C@H](c2nc(-c3ccccc3)c[nH]2)CC1 [IIIa-1],,,,,0.85 nM,
CC(C)(C)S(=O)(=O)N[C@H]1CC[C@H](c2nc(-c3ccccc3)c(Cl)[nH]2)CC1 [IIIb-1],3.46 mL/min/kg,4.04 h,,,,
CC(C)(C)S(=O)(=O)N[C@H]1CC[C@H](c2[nH]cc(-c3ccccc3)c2C#N)CC1 [IIa-3],,,,,0.22 nM,
CC(C)(C)S(=O)(=O)N[C@H]1CC[C@H](c2nc(-c3cccc(C#N)c3)c[nH]2)CC1 [IIIa-13],14.5 mL/min/kg,1.17 h,,,,
COc1cccc(-c2nc([C@H]3CC[C@H](NS(=O)(=O)C(C)(C)C)CC3)[nH]c2C(F)(F)F)c1 [IIIb-7],,,,,0.7 nM,
CC(C)(C)S(=O)(=O)N[C@H]1CC[C@H](c2[nH]nc(-c3ccccc3)c2F)CC1 [IVb-3],4.04 mL/min/kg,8.14 h,5.84,3.14,,
CC(C)(C)S(=O)(=O)N[C@H]1CC[C@H](c2cc(-c3ccc(F)cc3)n[nH]2)CC1 [IVa-9],2.67 mL/min/kg,13.6 h,2.28,2.41,,"inhibition rate on food intake at 2 hours (NPY Y5 receptor; 6 mg/kg oral, Group A against Group B after subtracting Group C, 2 hours): 65.4%; inhibition rate on food intake at 4 hours (NPY Y5 receptor; 6 mg/kg oral, Group A against Group B after subtracting Group C, 4 hours): 67.0%; mean food intake at 2 hours (NPY Y5 receptor; oral administration at 6 mg/kg in mice, ICV NPY Y5 agonist, 2 hours): 0.24 ± 0.05 g; mean food intake at 4 hours (NPY Y5 receptor; oral administration at 6 mg/kg in mice, ICV NPY Y5 agonist, 4 hours): 0.51 ± 0.06 g"
CC(C)(C)S(=O)(=O)N[C@H]1CC[C@H](c2nc(-c3ccccc3)n[nH]2)CC1 [Va-2],2.6 mL/min/kg,6.4 h,,,2.2 nM,
CC(C)(C)S(=O)(=O)N[C@H]1CC[C@H](c2[nH]nc(-c3ccccc3)c2C#N)CC1 [IVb-23],,,,,0.37 nM,
CC(C)(C)S(=O)(=O)N[C@H]1CC[C@H](c2nc(-c3ccccc3)c(C(F)(F)F)[nH]2)CC1 [IIIb-5],3.84 mL/min/kg,7.67 h,,,,
CC(C)(C)S(=O)(=O)N[C@H]1CC[C@H](c2cc(-c3ccccc3)n[nH]2)CC1 [IVa-3],7.43 mL/min/kg,3.82 h,3.69,1.78,1.4 nM,
Cc1c(-c2ccccc2)n[nH]c1[C@H]1CC[C@H](NS(=O)(=O)C(C)(C)C)CC1 [IVb-1],,,1.88,1.44,,

# Continued, in another order:
clearance [1],half-life [1],Kp at 0.5 h [2],Kp at 5 h [3],IC50 (mouse NPY Y5 receptor),SMILES,also measured
17.8 mL/min/kg,1.57 h,3.55,2.11,,CC(C)(C)S(=O)(=O)N[C@H]1CC[C@H](c2cc3cc(-c4ncccn4)ccc3[nH]2)CC1 [Ia-8],
,,,,1.1 nM,CC(C)(C)S(=O)(=O)N[C@H]1CC[C@H](c2cc3c(-c4ccccn4)cccc3[nH]2)CC1 [Ia-2],
,,2.3,1.33,,CC(C)(C)S(=O)(=O)N[C@H]1CC[C@H](c2cc3nc(-c4ccccc4F)ccc3[nH]2)CC1 [Ib-13],
,,,,0.28 nM,CC(C)(C)S(=O)(=O)N[C@H]1CC[C@H](c2cc3cc(-c4ccccn4)ccc3[nH]2)CC1 [Ia-7],
,,,,0.29 nM,CC(C)(C)S(=O)(=O)N[C@H]1CC[C@H](c2cc3nc(-c4ccccn4)ccc3[nH]2)CC1 [Ib-14],
,,,,0.75 nM,CC(C)(C)S(=O)(=O)N[C@H]1CC[C@H](c2cc3cc(-c4ccccn4)cnc3[nH]2)CC1 [Ib-32],
,,1.91,0.89,,CC(C)(C)S(=O)(=O)N[C@H]1CC[C@H](c2cc3nc(-c4ccc(F)cc4)ncc3[nH]2)CC1 [Ib-35],
,,,,1.3 nM,CC(C)(C)S(=O)(=O)N[C@H]1CC[C@H](c2cc3c(-c4ccccn4)cncc3[nH]2)CC1 [Ib-28],
,,,,5.5 nM,CC(C)(C)S(=O)(=O)N[C@H]1CC[C@H](c2cc3ccc(-c4ccccn4)cc3[nH]2)CC1 [Ia-18],
